Results published in US20240009359A1, “DRUG ELUTING ELASTIC BANDS AND LIGATION” (MEMORIAL SLOAN KETTERING CANCER CENTER, priority 2020, published 2024).
Entries after “also recorded” stand apart in the source; their conditions may differ.

Legend:
[1] = Drug release from rubber bands in physiological medium; assay type: physicochemical; conditions: pH 7.9, 37 degrees Celsius; for Drug release from rubber band: released drug measured over time
Experimental: To see whether the lidocaine loaded within the rubber is dispersed evenly, a larger lidocaine loaded rubber slab was prepared and cut into pieces from either the middle or the edges of the slab. The amount of drug released was measured (see FIG. 9K) and normalized to the amount of rubber (see FIG. 9L).

[2] = system: HL-1 cardiomyocytes; experiment: Calcium imaging of HL-1 cardiomyocytes exposed to lidocaine released from rubber bands; assay type: cell-based; conditions: HL-1 cardiomyocytes before and after exposure to released lidocaine
Experimental: In accordance with various potential embodiments, and with reference to FIGS. 11A-11C, the released lidocaine was tested on cardiomyocytes. Lidocaine is known to have a cardiotoxic effect in high concentrations, and accordingly, HL-1 cardiomyocytes beating on a plate were imaged using calcium imaging before and after exposure to the released lidocaine (FIG. 11A).

[3] = system: MCF-7 cells; experiment: Activity of salicylic acid released from rubber on MCF-7 cell viability; assay type: cell-based; conditions: drug loaded in rubber and released into the media in presence of MCF-7 cells
From the text: In order to verify that the released drugs are still active after elution from the rubber, salicylic acid was loaded and released into the media in the presence of MCF-7 cells.

| Compound | Drug release from rubber band [1] | other results |
| --- | --- | --- |
| CCCCN1CCCCC1C(=O)Nc1c(C)cccc1C (centres unmarked) [bupivacaine] | released |  |
| Cc1cc(C2CCCCC2)n(O)c(=O)c1 [ciclopirox olamine] | released |  |
| CN(C)CCOC(c1ccccc1)c1ccccc1.Cn1c(=O)c2[nH]c(Cl)nc2n(C)c1=O [dimenhydrinate] | released |  |
| COC1=CC(=O)C[C@@H](C)[C@]12Oc1c(Cl)c(OC)cc(OC)c1C2=O [griseofulvin] | released |  |
| CCN(CC)CC(=O)Nc1c(C)cccc1C [lidocaine] |  | Calcium activity (calcium waves, fluorescence pattern) [2]: inhibit spontaneous calcium waves; also recorded: much lower level of calcium activity; Rate of contraction [2]: rate of contraction dropped; Time at which release peaked ([1]; different loading quantities): ~5 days |
| CN1C(C(=O)Nc2ccccn2)=C(O)c2ccccc2S1(=O)=O [piroxicam] | released |  |
| O=C(O)c1ccccc1O [salicylic acid] | released | Cell viability compared to untreated cells [3]: effective in reducing cell viability |
| OB1OCc2cc(F)ccc21 [tavabarole] | released |  |
